Measurements taken from a melting point compilation (Tetko et al.; mined from patent text by program, amines drawn as free bases though some values may be those of a salt).

melting point [°C] | Structure (SMILES)
94 to 97 | CCC(C)COc1ccc(-c2ccc(OS(=O)(=O)c3ccc(C)cc3)cc2)cc1 (configuration not stated)
120 to 121 | Cc1ccc(N(C)S(=O)(=O)c2cccs2)c2[nH]c(C3=NCC(CC(N)=O)S3)cc12 (configuration not stated)
69 to 71.5 | CCOC(=O)Cc1c(-c2ccc(C)cc2)nn2cccnc12
136 to 138 | COCC1CN(c2ccc(C3CCN(C(=O)C=Cc4ccccc4)CC3)cc2)C(=O)O1 (racemic)
57 | COc1cc(I)ccc1-c1ccccc1
208 to 210 | O=C1Cc2cc(C(=O)N3CCN(CCC(=O)c4ccccc4)CC3)ccc2N1
114 | COc1ccccc1Oc1cccc2c1NC(=O)C2SC (configuration not stated)
80 | CC(C)N(C)C(=O)COc1cc(-c2ccccc2)nc2ccccc12
254 to 255 | O=C(Nc1cc(Cl)cc(Cl)c1)c1cc2ccccc2cc1O
62.6 to 64 | [N-]=[N+]=C(C(=O)CCc1ccccc1)C(=O)CCc1ccccc1
89 to 90 | Cc1oc(-c2ccccc2)nc1CCC(=O)c1ccc(CCC2OCCO2)cc1
220 to 222 | Nc1ncc2cc(-c3c(Cl)cccc3Cl)c(=O)n(Cc3ccccc3)c2n1
156 to 159 | Cc1noc(NS(=O)(=O)c2cccc3c(NC(C)C)cccc23)c1C
176 to 179 | CC(c1oc2ccccc2c(=O)c1-c1cccc(F)c1)n1nc(-c2cccc(OC(F)F)c2)c2c(N)ncnc21 (configuration not stated)
108 to 110 | Fc1ccc(-c2cc(-c3ccccc3)c(-c3ccccc3)s2)cc1
95 to 98 | Clc1ccc2c3c(cccc13)-c1ccccc1-2
104 | O=CC=Cc1cnc(-c2ccccc2)s1
58 | O=C(c1ccccc1)c1ccc(OCCCCCCBr)c(Cl)c1
196 to 197 | O=C1N(Cc2ccc(OCCO)cc2)c2ccccc2C12COc1cc3c(cc12)OCCO3 (configuration not stated)
117 to 120 | COc1ccc(C2=NN(Cc3cccnc3)C(=O)[C@H]3CC=CC[C@@H]23)cc1OC (relative stereo)

melting point [°C] | Structure (SMILES)
118 to 120 | CCC(C)(N=NC(C)(CC)NC(=O)Nc1ccccc1)NC(=O)Nc1ccccc1 (configuration not stated)
71 to 72 | CCCCOC(=O)Cc1nc(-c2ccccc2)oc1-c1ccsc1
159 to 160 | Cc1cccc(CC(=O)O)c1OCCCc1cn(-c2ccc(C(F)(F)F)cn2)nc1C(C)C
146 to 149 | Cc1ccccc1C1=NOC2(C1)OC(=O)c1ccccc12 (configuration not stated)
134 to 135 | N=C(Nc1cccc(Cl)c1)Nc1nc(-c2ccccc2)cs1
218 to 224 | CN(C)NC(=NS(=O)(=O)c1ccc(Cl)cc1)N1CC(c2ccccc2)C(c2ccc(Cl)cc2)=N1 (single isomer, unassigned; (-))
236 to 238 | Fc1ccccc1Cn1cnc2c(Nn3ccc4ccccc43)ncnc21
109 to 111 | COc1ccc2c(c1)C(CCNC(=O)C(F)(F)F)C(c1ccccc1)C2 (configuration not stated)
148 to 149 | COC(=O)c1cccc(-c2cccc3c2nc(N(C)c2cccc(C(F)(F)F)c2)n3C)c1
86 to 87 | Fc1cccc(F)c1-c1nc(/C=C/c2ccc(C3CCCCC3)cc2)no1
173 to 174 | O=c1[nH]c(=O)n(CCCCCN2CCC(OC(c3ccccc3)c3ccccc3)CC2)c2ccccc12
184 | Nc1ccc(OCc2ccccc2)cc1N
93 | CCN(C)C(=O)c1cc(-c2ccccc2)c2sccc2c1
232 to 242 | CS(=O)(=O)c1ccc(-c2cc(=O)[nH]c(C(F)(F)F)c2-c2ccc(F)cc2)cc1
116 to 117 | c1ccc(Sc2ccc(-c3ccc(Sc4ccccc4)cc3)cc2)cc1
229 to 231 | CCCCc1nc2ccccc2n1Cc1ccc(C(=O)O)cc1
239 to 241 | CN1c2cc(Cl)ccc2-c2nc3ccccc3c3cc(OS(=O)(=O)C(F)(F)F)cc1c23
233 to 235 | O=C(Cn1c(=O)[nH]c2ccccc21)c1c(-c2ccccc2)nc2ccccn12
51 to 52 | Nc1ccc(Cl)cc1C(=O)c1ccccc1O

Continued, compound first:

Structure (SMILES) | melting point [°C]
Cc1cc(C)n2nc(S(=O)(=O)Cl)c(C#N)c2n1 | 138
O=C(O)CCc1ccc(OCCCc2cc(-c3ccc(C(F)(F)F)cc3)no2)cc1 | 174 to 175
Cc1cc2cc(CN3CCCCCC3)cnc2cc1NC(=O)c1ccc(-c2ccc(Cl)s2)cc1 | 180
O=C(Cl)c1ccc(Cl)cc1[N+](=O)[O-] | 95 to 96
NC(=O)c1nnn(Cc2ccccc2F)c1N | 189 to 190
CC(C)Oc1cccc(CSc2nc(N)cc(Cl)n2)c1 | 71
CC(=O)OCC(=O)Nc1cc(-c2ccncc2)c[nH]c1=O | 267 to 290
C[C@H](C#Cc1ccc(CCc2ccc(F)cc2)s1)N(O)C(N)=O | 126 to 128
CCCCC(C(=O)OCC)(C(=O)OCC)c1nc(C)nc2c1c(SC)nn2-c1c(Cl)cc(Cl)cc1Cl | 148 to 150
CN(C)CCC(=O)Nc1cccc(NC(=O)Nc2ccc(N(CCCl)CCCl)cc2)c1 | 88 to 90
CCN(CC)CCCOc1ccc(C[C@H](NC(=O)[C@@H]2CCCN2S(=O)(=O)c2ccc(C)cc2)C(=O)O)cc1 | 76 to 82
CC(C)CCN1C(=O)C(NC(=O)Oc2ccccc2)C(=O)N(c2ccccc2F)c2ccccc21 (configuration not stated) | 226 to 227
CC(=O)c1cc2c(s1)C(N1CCCC1=O)C(O)C(C)(C)O2 (configuration not stated) | 102 to 106
COC(=O)c1cc(O)c2cc[nH]c2c1 | 160 to 162
OCc1[nH]c(=S)n(C2CCc3ccccc3C2)c1CO (configuration not stated) | 199 to 200
CCOC(=O)c1c(C)cc2c(c1C)c(=O)n(-c1ccccc1Cl)c(=O)n2CC(=O)N1CCN(C)CC1 | 64 to 65
Cc1c(Cl)cccc1Nc1ncccc1C(=O)OCOC(=O)C(C)(C)C | 90 to 91
CCCCCCCNC(=O)c1ccc(CCCC)cc1 | 37 to 38
OC1CCCCC1Oc1cccc(COc2cccc3cccnc23)c1 (configuration not stated) | 109 to 110
Cc1c(S(=O)(=O)Nc2ccc(-c3nc(CO)cs3)cc2S(C)(=O)=O)sc2ccc(F)cc12 | 209 to 210
Oc1ccc(-c2nnc(Nc3ccc(Br)c(Cl)c3)s2)cc1O | 220

Structure (SMILES) | melting point [°C]
CC(=O)c1c[nH]c2nccc(OCC3CCCCC3)c12 | > 210
Cc1cccc(OC(=O)n2c3c(c(=O)n(C4CCCCO4)c2=O)CCC3)c1 (configuration not stated) | 155
CCCCN(CCCC)c1ccc(C=CC2=CC(=CC=CC3=C(C#N)C(=C(C#N)C#N)OC3(C)C(F)(F)F)CC(C)(C)C2)c(OC)c1 (configuration not stated) | 196 to 201
CCOC(=O)c1nc(O)sc1C(C)=O | 105 to 108
O=C1NC2C3C=CC(C3)C12 (configuration not stated) | 94 to 97
COCC(O)COc1ccc2cc(S(N)(=O)=O)sc2c1 (configuration not stated) | 128 to 129
COc1ccc(N2CCOCC2)c2sc(NC(=O)C[C@H]3CC[C@@H](OC(C)=O)C3)nc12 (relative stereo) | 172 to 173
CC(=O)c1cccc2ccc(CC(=O)O)cc12 | 131 to 132
Cc1n[nH]c(CC(=O)O)c1Oc1cc(Cl)cc(Cl)c1 | 156 to 158
CCN(C(=O)N1CCN(c2cc(C)cc(C)c2)CC1)c1nc(C)c(C)nc1OC | 68 to 70
CCCC(=O)C(=O)NCC(=O)c1cccnc1 | 80 to 82
CC(C)(C)c1cc(-c2nn(CC(F)(F)C(F)F)c3ncccc23)cc(C(C)(C)C)c1O | 105 to 106
CC(C)(C)OC(=O)NC(C(=O)O)c1ccccc1O (configuration not stated) | 125
FC(F)(F)Oc1ccc(-c2ncc(Br)cn2)cc1 | 107 to 108
CC[C@H]1[C@@H](O)[C@H](C)C(=O)N1c1ccc(C#N)c(C(F)(F)F)c1 | 113 to 119
CSc1cccc(C2CC(=O)C=C(O)C2)c1 (configuration not stated) | 141
O=C(NC1CCCC1)c1cccc(-c2ccnc3c(C(=O)c4cccs4)cnn23)c1 | 207 to 209
FC(F)(F)c1cc(Cl)c(-n2cc(I)nn2)c(Cl)c1 | 194 to 195
CC(=O)OC1COC(Oc2ccc(C(=S)c3ccc(C)cc3)cc2)C(OC(C)=O)C1OC(C)=O (configuration not stated) | 132
CCOC(=O)c1c(C)nc2c(nc(C)n2CC)c1OCC | 62 to 65
Nc1nc(C(F)(F)F)nc2c1ncn2C1OC(CO)C(O)C1O (configuration not stated) | 173 to 175

Structure (SMILES) | melting point [°C]
COC(=O)C(O)C(F)(F)F (configuration not stated) | 50 to 53
CCOC(=O)/C=C/c1ccc(OCCOC)cc1Oc1ncc(Cl)cc1Cl | 70.7 to 71.3
Cc1nnc(CO)n1-c1ccc(Cl)cc1C(=O)c1ccccc1Cl | 194 to 195
Nc1cc(C(=O)O)cc(S(N)(=O)=O)c1Nc1ccc(Cl)cc1 | 273 to 274
CCOC(=O)CCc1cn(-c2ccc(C(F)(F)F)cc2)nc1OCC | 47 to 48
C=C(CCC)C(=O)c1cc2oc(C(=O)O)cc2c(C)c1C | 172
FC(F)(F)c1cccc(-c2ncn(CC3CC3)c2-c2ccncc2)c1 | 106
CC(C)NC(=O)C1c2cc(NC(=O)c3cc(C(F)(F)F)nn3-c3ncccc3Cl)c(Cl)cc2CC1F (configuration not stated) | 98 to 99
O=C1Nc2cccc(Cl)c2C(=O)N2CCC[C@@H]12 | 264 to 266
CCC(C)(CC)NC(=S)Nc1cc(Cl)cc(Cl)c1 | 128 to 132
NC(=O)c1ccc(-c2ccc3nnn(Cc4cc5cccnc5cc4F)c3n2)cc1F | 206 to 208
Cc1cc2nc(Cl)sc2cc1C | 175
CCC(OC(C)C)c1cc(C(=O)OC)c(N)cc1C(F)(F)F (configuration not stated) | 54 to 56
CCCN1CCCC(c2cccc(O)c2)C1=O (configuration not stated) | 61 to 63
CS(=O)(=O)c1ccc(C(CC2CCCC2)C(=O)Nc2nccs2)cc1NO (configuration not stated) | 124 to 126
Ic1ccc(N2CCCC2)cc1 | 99.7 to 99.8
O=C(N1CCc2cccc(O)c2CC1)C(F)(F)F | 183 to 186
CN1Sc2sccc2C=C1CO | 128 to 130
c1ccn(Nc2ccncn2)c1 | 134 to 136
O=[N+]([O-])c1cccc2c(CO)ccnc12 | 148
CCCCCCCCCCCCCCCCCCNC(=O)OC(=O)CCCCCCCCCCCCCCCCC | 84
